Experimental data reported in patent publication US12115256B2, “Targeted liposomal gemcitabine and methods thereof” (L.E.A.F. HOLDINGS GROUP LLC, priority 2016, dated 2024).
Read-outs that look alike come from different tables or passages of the source.

Key:
[1] = molecular target: T1, Reduced folate carrier (RFC) (Homo sapiens, UniProt P41440); conditions: read-out: Binding affinity, Km; cited from earlier work
T1 sequence (P41440 1-591): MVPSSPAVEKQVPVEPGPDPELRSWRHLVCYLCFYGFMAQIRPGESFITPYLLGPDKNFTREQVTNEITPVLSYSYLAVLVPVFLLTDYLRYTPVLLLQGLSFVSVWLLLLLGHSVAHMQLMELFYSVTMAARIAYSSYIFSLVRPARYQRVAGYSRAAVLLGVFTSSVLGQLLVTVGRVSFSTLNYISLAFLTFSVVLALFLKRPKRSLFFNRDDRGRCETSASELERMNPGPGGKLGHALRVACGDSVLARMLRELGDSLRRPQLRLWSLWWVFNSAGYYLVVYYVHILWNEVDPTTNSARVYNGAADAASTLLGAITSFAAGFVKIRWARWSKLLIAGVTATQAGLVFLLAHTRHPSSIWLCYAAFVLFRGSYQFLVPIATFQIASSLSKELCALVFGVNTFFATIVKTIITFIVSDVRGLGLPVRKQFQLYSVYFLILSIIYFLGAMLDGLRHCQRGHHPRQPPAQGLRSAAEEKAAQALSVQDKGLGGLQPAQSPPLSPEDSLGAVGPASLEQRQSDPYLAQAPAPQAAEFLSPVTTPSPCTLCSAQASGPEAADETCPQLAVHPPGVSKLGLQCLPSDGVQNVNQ

[2] = molecular target: Folate receptor α (FRα) (Homo sapiens, UniProt P15328); conditions: read-out: Binding affinity, Kd; cited from earlier work
Folate receptor α (FRα), sequence (P15328 25-234, species assumed): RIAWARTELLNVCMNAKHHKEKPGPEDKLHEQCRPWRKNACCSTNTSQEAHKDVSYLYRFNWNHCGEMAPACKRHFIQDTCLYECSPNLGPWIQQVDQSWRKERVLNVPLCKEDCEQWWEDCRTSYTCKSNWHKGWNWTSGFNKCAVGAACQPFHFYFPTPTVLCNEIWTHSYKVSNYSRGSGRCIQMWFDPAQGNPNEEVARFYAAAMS

[3] = tested on: HPAF-II pancreatic cancer cells; test: MTS cell proliferation assay, HPAF-II; format: cell-based; conditions: Homo sapiens, 96 h, 4 days
Protocol: HPAF-II ATCC CRL-1997; Eagle's Minimum Essential Medium (EMEM) (ATCC® 30-2003Tm)); 10% HI FBS; 1% Pen/Strep; 1% L-Glutamine.
(§1) Cancer cell lines were seeded in 96 well plates on day 0 at optimal cell numbers. On day 1, drug formulations were added at 2-fold serial dilutions. The cells were incubated for 3-5 days and the level of inhibition of cellular proliferation was measured by the MTS assay (3-(4,5-dimethylthiazol-2-yl)-5-(3-carboxymethoxyphenyl)-2-(4-sulfophenyl)-2H-tetrazolium assay). The commercially available MTS Cell Proliferation Assay Kit (Colorimetric) (197010) is a colorimetric sensitive quantification of viable cells in proliferation and cytotoxicity assay. The assay is based on the reduction of MTS tetrazolium compound by viable cells to generate a colored formazan product that is soluble in cell culture media.
The MTS experiments are performed as follows: The night before, the cells are seeded according to the amount of cells required for each cell line in 96 well tissue culture plate. Final volume in each well is 100 μL (see Table of cell lines for reference; all cell lines obtained from ATCC).
The seeded cells are incubated at 37° C. and 5% CO 2 overnight. […]
(§2) On day 4, the effect on cellular proliferation was measured with MTS assay. […] The plates were incubated for 2 hours at 37° C. and the absorbance was measured at 490 nm. […]

[4] = tested on: NCI-H2452 lung (mesothelioma) cancer cells; test: MTS cell proliferation assay, NCI-H2452; format: cell-based; conditions: Homo sapiens, 96 h, 4 days, MTS (FIG. 2)
Description: (§3) Cells lines used in the experiments are commercially available from sources such as the ATCC (American Type Culture Collection of Manassas, Virginia, U.S.A). The cell lines, their ATCC accession numbers and growth conditions are listed below. • NCI-H2452 (ATCC® CRL-5946TH); RPMI-1640 (Cat. #30-2001); 10% HI FBS; 1% Pen/Strep; 1% L-Glutamine. • PANC-1 (ATCC® CRL-1469TH); Dulbecco's Modified Eagle's Medium (DMEM) (ATCC® 30-2002TM) 10% HI FBS; 1% Pen/Strep; 1% L-Glutamine • SKBR3; McCoy 5A Medium; 10% HI FBS; 1% Pen/Strep; 1% L-Glutamine.
as §1, with “The assay is based on the reduction of MTS tetrazolium compound by viable cells to generate a colored formazan product that is soluble in cell culture media.” left out
as §2

[5] = tested on: PANC-1 pancreatic cancer cells; test: MTS cell proliferation assay, PANC-1; format: cell-based; conditions: Homo sapiens, 96 h, 4 days
Description: as §3
as §1, with “The assay is based on the reduction of MTS tetrazolium compound by viable cells to generate a colored formazan product that is soluble in cell culture media.” left out
as §2

[6] = tested on: SKBR3 breast cancer cells; test: MTS cell proliferation assay, SKBR3; format: cell-based; conditions: Homo sapiens, SK-BR-3, 96 h, 4 days
Description: as §3
as §1, with “The assay is based on the reduction of MTS tetrazolium compound by viable cells to generate a colored formazan product that is soluble in cell culture media.” left out
as §2

[7] = tested on: CD34+ stem cells (hematopoietic progenitor cells) differentiating into neutrophils; format: cell-based; conditions: human, 2 days
Description: The level of a molecule called CD15 is elevated on more mature neutrophils. This molecule is elevated on cells in the circles drawn on the plots.
FIG. 8. Neutrophil differentiation assay. One of the major side effects from gemcitabine treatment is the reduction of neutrophils in the bloodstream that counter infections. This is the result of CD34+ stem cells not differentiating, or developing, into mature neutrophils in the bone marrow. We measured the effect of targeted liposomal gemcitabine on neutrophil differentiation compared to the same dose of gemcitabine (10 and 50 μM.) Hematopoietic progenitor cells (CD34+) were purchased and treated with a panel of growth factors to induce neutrophil differentiation.
CD34+ stem cells were cultured without (A) or with (B) cytokines (growth factors) that induce neutrophil differentiation in vitro, including stem cell factor, IL-3, and […] for 2 days. […] By day 2, there is a dramatic increase in mature neutrophils depicted in the oval. […] The cells within the drawn gate (FIG. 8B) are larger, more complex maturing neutrophils that are lacking in FIG. 8A.
In more detail, experiments were performed as follows: CD34+ stem cells were obtained from ATCC. CD34+ cells were thawed at 37° C. for 1 minute. While on ice, the cells were transferred to cold stem cell medium (“StemSpan SFEM”—Stem Cell Tech. cat. #9650), 10% heat […] fetal bovine serum (HI FBS.) Each vial contained approximated 5×10^5 cell/ml. The cells were placed in 96 well tissue culture plates 35,000 cell/well.
The neutrophils GROWTH media contained 100 ng/ml of stem cell factor human (SCF-Sigma H8416, lot #MKBT8036V), 20 ng/ml of granulocyte colony-stimulation factor, human (G-CSF-Sigma H5541, lot #SLBC9602V), 10 ng/ml of IL3 recombinant human (Sigma SRP3090, lot #1008AFC13) in StemSpam media as above.
The cells were also treated as follows 1) StemSpam media alone with no growth cytokines; 2) StemSpam media+growth cytokines, and 3) Gemcitabine, Targeted Liposomal Gemcitabine and non-Targeted Liposomal Gemcitabine in amounts as indicated. […]

CN1c2c(nc(N)[nH]c2=O)NCC1CNc1ccc(C(=O)N[C@@H](CCC(=O)O)C(=O)O)cc1 (some centres unmarked) [5-mTHF, 5-methyltetrahydrofolate]
Km [1]: 1 to 10 µM | Kd [2]: 0.001 to 0.01 µM

Nc1ccn([C@@H]2O[C@H](CO)[C@@H](O)C2(F)F)c(=O)n1 [Gemcitabine, gemcitabine]
IC50 [3]: 9.11 µM | IC50 [4]: 30.4 µM | IC50 [5]: 11 µM | IC50 [6]: 297 µM | Number of live cells within the neutrophil gate (CD15+) [7]: less than 100 | Percentage of live cells within the neutrophil gate ([7]; 10 μM): less than 5% | Percentage of live cells within the neutrophil gate ([7]; 50 μM): less than 20%

Nc1nc2ncc(CNc3ccc(C(=O)N[C@@H](CCC(=O)O)C(=O)O)cc3)nc2c(=O)[nH]1 [folic acid]
Km [1]: 200 to 400 µM

CN(Cc1cnc2nc(N)nc(N)c2n1)c1ccc(C(=O)N[C@@H](CCC(=O)O)C(=O)O)cc1 [methotrexate]
Km [1]: 1 to 5 µM
